PMC11834182 (Parasites & Vectors, 2025)
Like-named read-outs stand apart in the source and are kept apart here.

Key:
rPpAChE1 [1] = biological target: T1, rPpAChE1 (Phlebotomus papatasi, UniProt M1F887); test: biochemical; parameters: gene AChE
CC(=O)SCC[N+](C)(C)C = test: cells, lysate or membranes; conditions: pH 7.0
rPpAChE1 [2] = biological target: T1, rPpAChE1; test: biochemical; parameters: gene AChE; PpAChE1 cDNA in pBlueBac4.5/V5-His, baculovirus expression in Sf21 cells, expression supernatant; species or system Sf21 (expression host)

Molecule: c1ccc2c(NCCCCCCCNc3c4c(nc5ccccc35)CCCC4)c3c(nc2c1)CCCC3 [bis(7)-tacrine]
- IC50 (rPpAChE1 [1]): 4 nM

Molecule: rPpAChE1 (Phlebotomus papatasi)
- Km (CC(=O)SCC[N+](C)(C)C): 123 ± 25 µM
- Vmax (CC(=O)SCC[N+](C)(C)C): 74 ± 6.7 µmol/min/mg

Molecule: CCOC(=O)CC(SP(=O)(OC)OC)C(=O)OCC (stereo not shown) [Maloxon]
- IC50 (rPpAChE1 [2]): 44 nM
